Test results as given in PubChem BioAssay (NCI).
Where “and” joins values, the source holds several entries; their conditions need not be identical. Equal values may be shown once.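 Tested at 5 concentrations; 48 h exposure; 96-well plates; endpoints linearly interpolated, else capped at highest concentration. The concentration for 50% growth inhibition is given as GI50. TGI is the concentration that stops growth completely.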

What was measured:
Assay in all cases: NCI anticancer screen, dose series, 48 h
SF-268 CNS = test system: SF-268 CNS
BT-549 breast = test system: BT-549 breast
SR leukemia = test system: SR leukemia
MALME-3M melanoma = test system: MALME-3M melanoma
MDA-MB-231 breast = test system: MDA-MB-231 breast
NCI/ADR-RES ovarian = test system: NCI/ADR-RES ovarian
SK-OV-3 ovarian = test system: SK-OV-3 ovarian
OVCAR-5 ovarian = test system: OVCAR-5 ovarian
HOP-62 NSCLC = test system: HOP-62 NSCLC
SK-MEL-2 melanoma = test system: SK-MEL-2 melanoma

Structure (SMILES) | GI50 (SF-268 CNS) | TGI (SF-268 CNS) | GI50 (BT-549 breast) | TGI (BT-549 breast) | GI50 (SR leukemia) | TGI (SR leukemia) | GI50 (MALME-3M melanoma) | TGI (MALME-3M melanoma) | GI50 (MDA-MB-231 breast) | TGI (MDA-MB-231 breast) | GI50 (NCI/ADR-RES ovarian) | TGI (NCI/ADR-RES ovarian) | GI50 (SK-OV-3 ovarian) | TGI (SK-OV-3 ovarian) | GI50 (OVCAR-5 ovarian) | TGI (OVCAR-5 ovarian) | GI50 (HOP-62 NSCLC) | TGI (HOP-62 NSCLC) | GI50 (SK-MEL-2 melanoma) | TGI (SK-MEL-2 melanoma)
COc1ccc(C2CC(=O)Nc3c2c(C)nn3-c2nc3ccccc3[nH]2)cc1OC (stereo not given) | 5.07 µM | > 69.5 µM | 4.19 µM | 33.7 µM | 3.36 µM | 26.2 µM | 4.94 µM | 29 µM | 4.39 µM | 21 µM | 12 µM | > 100 µM | 2.89 µM | 6.49 µM | 25.4 µM | > 77.2 µM | 4.32 µM | 24.4 µM | 4.85 µM | 21.9 µM
Cn1cc(-c2[nH]c3cc(NC(=O)[C@H](N)C4CCCCC4)cc4c3c2C=NNC4=O)cn1 | 0.305 µM and 0.324 µM | 13.1 µM and > 10 µM | 0.215 µM and 0.375 µM | 1.41 µM and 5.85 µM | 0.0566 µM and 0.12 µM | 0.622 µM and 1.1 µM | 2.22 µM and 0.517 µM | 24.7 µM and > 10 µM | 0.866 µM and 0.562 µM | 12.4 µM and > 10 µM | 9.8 µM | > 74.4 µM | 0.302 µM and 0.309 µM | 11.4 µM and > 10 µM | 1.28 µM and 0.644 µM | 15.8 µM and > 10 µM | 0.401 µM and 0.343 µM | 12.3 µM and > 10 µM | 0.262 µM | > 10 µM
CCN(Cc1c(F)cccc1C(F)(F)F)c1ccc(CO)c(Cl)c1 | 16.6 µM | 31.5 µM | 17.7 µM | 32 µM | 14.5 µM | 36.5 µM | 15.2 µM | 30.1 µM | 14.6 µM | 28.3 µM | 14.7 µM | 32.1 µM | 13.7 µM | 26.8 µM | < 0.0249 µM | 0.205 µM | 13.7 µM | 26.6 µM | 3.33 µM | 24.5 µM
CN1CCN(CCCn2c3c(sc4ncccc43)c(=O)n3nnc(-c4ccccc4)c23)CC1 | 1.68 µM | 3.32 µM | 14.7 µM | 30.6 µM | 0.241 µM | 0.603 µM | 6.38 µM | 11.8 µM | 1.59 µM | 3.04 µM | 1.95 µM | 4.77 µM | 18.4 µM | 33.3 µM | 6.89 µM | 15.9 µM | 1.63 µM | 3.4 µM | 21.6 µM | 39 µM
Nc1cc2c3ccccc3ccc2c2ccccc12 | > 100 µM | > 100 µM | > 77.1 µM | > 100 µM | > 100 µM | > 100 µM | > 100 µM | > 100 µM | 7.36 µM | > 100 µM | > 93.7 µM | > 100 µM | > 100 µM | > 100 µM | > 100 µM | > 100 µM | 30.6 µM | > 100 µM | > 100 µM | > 100 µM
CC1(/C=C/c2ccc(-c3ccccc3)cc2)CCn2cnc3ncnc(c32)N1O (stereo not given) | 0.405 µM | 15.8 µM | 0.495 µM | 16.9 µM | 0.31 µM | > 100 µM | 0.412 µM | 14.7 µM | 0.509 µM | 63.2 µM | 0.348 µM | 28.7 µM | 0.434 µM | 20.4 µM | 0.623 µM | 58.7 µM | 0.366 µM | 16.4 µM | 1.42 µM | 41.2 µM
C=C1C(=O)O[C@H]2[C@H]1CC/C(COC(=O)NCCc1ccc(Br)cc1)=C\CC[C@@]1(C)O[C@@H]21 | 1.56 µM | 3.19 µM | 1.1 µM | 2.6 µM | 0.43 µM | 2.91 µM | 2.09 µM | 3.77 µM | 1.42 µM | 3.08 µM | 2.26 µM | 6.74 µM | 10.8 µM | 22.8 µM | 1.96 µM | 4.47 µM | 1.99 µM | 4.4 µM | 1.58 µM | 3.17 µM
Oc1ccc(Cl)cc1N=Nc1c(O)ccc2ccccc12 | – | > 100 µM | – | > 100 µM | – | > 100 µM | – | 80.3 µM | – | > 100 µM | – | > 100 µM | – | > 100 µM | – | > 100 µM | – | > 100 µM | – | > 100 µM
C#Cc1cccc(NC(=O)C2CCCCN2C(=O)CCl)c1 (stereo not given) | 21.1 µM | 75.2 µM | 12.5 µM | 27.2 µM | 3.6 µM | 66.8 µM | 9.93 µM | 22.4 µM | 13.1 µM | 28.7 µM | 16.5 µM | 47.3 µM | > 82.5 µM | > 82.5 µM | 13.1 µM | 27.2 µM | > 82.5 µM | > 82.5 µM | 23.9 µM | > 82.5 µM
C=C1[C@H](O)C[C@@H](C(C)C(O)CC=C(C)C)[C@@H](O)[C@@H]2C(C)=CC[C@@H]12 (stereo not given in full) | > 100 µM | > 100 µM | > 100 µM | > 100 µM | > 100 µM | > 100 µM | > 100 µM | > 100 µM | > 100 µM | > 100 µM | > 100 µM | > 100 µM | > 100 µM | > 100 µM | > 100 µM | > 100 µM | > 100 µM | > 100 µM | > 100 µM | > 100 µM
CS(=O)(=O)Nc1cc(-c2ccc3ncnc(Nc4ccc(OCc5ccccn5)c(Cl)c4)c3c2)cnc1Cl | 0.429 µM | > 100 µM | 0.14 µM | 1.23 µM | 0.374 µM | 2.77 µM | 0.0851 µM | 0.736 µM | 0.313 µM | 2.03 µM | 7.07 µM | > 100 µM | 0.21 µM | 1.16 µM | 0.325 µM | 4.58 µM | 0.646 µM | > 100 µM | 0.184 µM | 0.739 µM
COc1cc2cc(C(=O)Nc3ccccc3)c(N)nc2cc1OC | 81.8 µM | > 100 µM | 25.1 µM | > 100 µM | 33.9 µM | > 100 µM | 44.3 µM | > 100 µM | 59.6 µM | > 100 µM | 28.4 µM | > 100 µM | > 100 µM | > 100 µM | > 100 µM | > 100 µM | 62.6 µM | > 100 µM | 69.1 µM | > 100 µM
